The test system of experiment [1] is patient with severe neurodermitis. Description: Case IX: severe neurodermitis, intramuscular application. It counts as in vivo, human. As to conditions: systemic intramuscular application, doses of 80 mg. The protocol: FIG. 1A to FIG. 1C show pictures of the feet of a neurodermitis patient whose case is described below as case IX (Example 4).
Case IX: • Severe dermatologically verified neurodermitis with strong changes, especially in the area of hands and feet. […] After that, attempt of intramuscular application of 2 ml of exosomes in connection with 20 mg triamcinolone. […] Subsequent slight deterioration but still improvement compared to preliminary findings. FIG. 1A describes the dermatological changes at both feet immediately before treatment, FIG. 1B and FIG. 1C one week after treatment for the right/left foot.

Experiment [2] concerns osteoarthritis. Particulars: in vivo; cited from earlier work.
Experiment [3] concerns patient with partial rotator cuff rupture and complete shoulder stiffness le. Particulars: before combination therapy.
Procedure: Surgery appointment for the left shoulder was made. Here it should be tried to avoid surgery. […] 2 ml Orthokine were administered into the shoulder with 10 mg Anakinra and 10 mg triamcinolone via a syringe. […] The therapy was continued until day 4.
The subject of experiment [4] is patient with psoriasic arthritis. As to conditions: cortisone 20-40 mg intraarticular, effect for some days; combination after a few days.
Experiment [5] deals with patient with complete alopecia. Particulars: systemic and local application, high doses (10-80 mg prednisolone).
Experiment [6] has as its system patient with severe therapy-resistant rheumatoid arthritis. As to conditions: after one week; triamcinolone alone 10 mg to 40 mg intraarticular, combination with total 20 mg triamcinolone.
Procedure: Injection of exosomes (after incubation with IL-1Ra) and admixing total amount of 20 mg triamcinolone in MCP2-5 ab. and both shoulders.
Experiment [7] relates to patient with severe Bechterew arthritis. The experiment can be described thus: Case X: severe Bechterew arthritis, injection into the affected joints. The experiment is classed as in vivo, human. Particulars: total dose 40 mg into all affected joints; for 1 week. As to the method:
Case X • Severe Bechterew arthritis with iridocyclitis left eye. Patient is given prednisolone and MTX in changing doses as basic therapy. CRP 20_3 mg/l; left CFJ clearly swollen with +2 cm compared to the other side; left MCP and first knuckle 1st finger left clearly swollen and painful, right shoulder swollen, painful, abduction reduced by 30 degrees compared to normal. […] CRP within 1 week reduced from 20.3 mg/l to 2.9 mg/l.

In experiment [8] the test system is patient with gonarthrosis ri, cartilage defects degree 2-4 according to Outerbridge. Description: Case VIII: gonarthrosis ri, intraarticular injection into the right knee. The experiment is classed as in vivo, human. Particulars: triamcinolone 10-40 mg intraarticular (history); exosomes one-time intraarticular, after 4 weeks. The protocol:
Case VIII: • Gonarthrosis ri with cartilage defects verified arthroscopically degree 2-4 according to Outerbridge. The patient wishes to delay surgery and joint replacement. History of intraarticular injection of triamcinolone in doses of 10-40 mg to no effect. Injection of 1 ml of exosomes prepared by means of the technique as described after incubation with IL-1Ra. […] Afterwards decision for an intraarticular injection into the right knee combined with 10 mg triamcinolone.

On to `C[C@]12C=CC(=O)C=C1CC[C@@H]1[C@@H]2[C@@H](O)C[C@@]2(C)[C@H]1CC[C@]2(O)C(=O)CO` [prednisolone], for which, in experiment [1], the “duration of short-term effect” value was 1 week.

For the compound “Anakinra: recombinant human IL-1 receptor antagonist, amino acids 26-177, terminally L-methionylated, 153 amino acids”, in experiment [2], the “effects in the treatment of osteoarthritis compared to a placebo treatment” value is listed as “did not show any effects”.

With `C[C@]12CCC(=O)C=C1CC[C@@H]1[C@@H]2C(=O)C[C@@]2(C)[C@H]1CC[C@]2(O)C(=O)CO` [cortisone], the “outcome of numerous earlier injections into the left shoulder” value in experiment [3] is listed as “without success”. In addition, the pain reduction in experiment [4] is on record as 10-30%. In addition, the “effect of earlier therapy attempts on alopecia” value in experiment [5] is reported as “without effect”.

As to `C[C@]12C=CC(=O)C=C1CC[C@H]1[C@@H]3C[C@@H](O)[C@](O)(C(=O)CO)[C@@]3(C)C[C@H](O)[C@@]12F` [triamcinolone], the “pain improvement / pain reduction” value in experiment [6] is given as 20%. In addition, in experiment [7], the improvement was determined as 20%. In experiment [1], the “duration of short-term effect” value amounted to 1 week. In addition, in experiment [8], the “clinical effect regarding pain and function of single agents” value is “to no effect”.

These data come from patent US9724391B2, “Combination preparation including a corticosteroid and exosomes” (ORTHOGEN AG, priority 2009, dated 2017).
